Among the data in ChEMBL document CHEMBL1132040, “Bioreductively-activated prodrugs for targeting hypoxic tissues: elimination of aspirin from 2-nitroimidazole derivatives” (Bioorg Med Chem Lett, 1999) are Activity and T1/2 values, retold here.

Common to all, as to assay type: ADME
Data set [1] can be described thus: Reductive elimination of leaving group was determined at pH 7.4; expressed as loss of parent.
Data set [2] can be described thus: Half life period at pH 9.1 was determined.
Data set [3] can be described thus: Half life period at pH 7.4 was determined.

`CC(=O)Oc1ccccc1C(=O)OCc1cnc([N+](=O)[O-])n1C`: the Activity in data set [1] was 0.19 µM/J. Also, the T1/2 in data set [2] is given as ~ 30 ms.
As to `Cn1c(COC(=O)c2ccccc2O)cnc1[N+](=O)[O-]`, the T1/2 is recorded as ~ 70 ms in data set [3] and ~ 250 ms in data set [2]. Further, the Activity in data set [1] came to 0.21 µM/J.
For the molecule `Cn1c(CBr)cnc1[N+](=O)[O-]`, the T1/2 in data set [3] is on record as ~ 0.3 ms. In addition, the Activity in data set [1] turned out to be 0.68 µM/J.
